The values below come from ChEMBL document CHEMBL4351013, “Carboxamides vs. methanimines: Crystal structures, binding interactions, photophysical studies, and biological evaluation of (indazole-5-yl)methanimines as monoamine oxidase B and acetylcholinesterase inhibitors” (Eur J Med Chem, 2019).

Some results are limits rather than exact numbers.

The target of data set [1] is T1, Amine oxidase [flavin-containing] A (Homo sapiens, UniProt P21397).
T1 sequence (P21397 whole entry): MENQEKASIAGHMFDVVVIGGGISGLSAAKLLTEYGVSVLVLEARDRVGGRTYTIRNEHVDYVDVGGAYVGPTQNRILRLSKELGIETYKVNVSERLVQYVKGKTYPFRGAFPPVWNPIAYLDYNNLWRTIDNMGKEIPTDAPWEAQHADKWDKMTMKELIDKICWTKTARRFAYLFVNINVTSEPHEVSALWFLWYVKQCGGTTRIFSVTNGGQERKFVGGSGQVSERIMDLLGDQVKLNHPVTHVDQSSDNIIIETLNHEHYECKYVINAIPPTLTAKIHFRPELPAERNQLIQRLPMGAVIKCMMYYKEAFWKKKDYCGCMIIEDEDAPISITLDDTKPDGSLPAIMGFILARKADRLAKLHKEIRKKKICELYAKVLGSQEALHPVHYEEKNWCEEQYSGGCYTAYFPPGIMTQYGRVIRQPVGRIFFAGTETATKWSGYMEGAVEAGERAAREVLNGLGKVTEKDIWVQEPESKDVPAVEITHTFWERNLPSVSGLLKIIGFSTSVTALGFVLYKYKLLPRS
Briefly: biochemical.
Description: Inhibition of human recombinant MAO-A expressed in baculovirus infected BTI-TN-5B1-4 insect cells assessed as decrease in H2O2 production using p-tyramine as substrate incubated for 20 mins by horse-radish peroxidase/amplex red-based fluorescence method

Another data set is filed under the species Homo sapiens. Kind of data set: Selectivity index, ratio of IC50 for human recombinant MAO-A expressed in baculovirus infected BTI-TN-5B1-4 cells to IC50 for human recombinant MAO-B expressed in baculovirus infected BTI-TN-5B1-4 cells.
Data set [2] deals with Cholinesterase (Homo sapiens) (UniProt P06276). Briefly: Inhibition of BuChE in human serum using S-butyrylthiocholine iodide as substrate at 100 uM preincubated with enzyme for 10 mins followed by substrate addition measured for 15 mins by Ellman's method relative to control. The data set is classed as cell-free. (In general: Ellman's reagent forms a yellow product with free thiols.)
Cholinesterase (Homo sapiens), sequence (P06276 whole entry): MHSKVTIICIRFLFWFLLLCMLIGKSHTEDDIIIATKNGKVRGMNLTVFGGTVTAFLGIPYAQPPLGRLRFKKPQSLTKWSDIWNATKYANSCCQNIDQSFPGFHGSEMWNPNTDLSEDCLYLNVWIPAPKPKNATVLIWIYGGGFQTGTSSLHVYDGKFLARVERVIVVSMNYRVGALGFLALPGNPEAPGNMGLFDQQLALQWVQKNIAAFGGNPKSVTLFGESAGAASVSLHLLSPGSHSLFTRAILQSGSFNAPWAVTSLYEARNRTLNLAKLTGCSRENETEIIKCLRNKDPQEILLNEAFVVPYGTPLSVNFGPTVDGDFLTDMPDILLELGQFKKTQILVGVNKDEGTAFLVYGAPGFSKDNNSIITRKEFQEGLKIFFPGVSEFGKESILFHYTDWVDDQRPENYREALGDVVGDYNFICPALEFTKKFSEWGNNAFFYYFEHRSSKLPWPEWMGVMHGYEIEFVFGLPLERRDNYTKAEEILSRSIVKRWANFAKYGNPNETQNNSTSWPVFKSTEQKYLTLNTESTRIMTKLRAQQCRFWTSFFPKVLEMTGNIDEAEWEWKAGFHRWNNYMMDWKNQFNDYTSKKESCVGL

Data set [3] has as its target T2, Amine oxidase [flavin-containing] B (Homo sapiens, UniProt P27338).
T2 sequence (P27338 whole entry): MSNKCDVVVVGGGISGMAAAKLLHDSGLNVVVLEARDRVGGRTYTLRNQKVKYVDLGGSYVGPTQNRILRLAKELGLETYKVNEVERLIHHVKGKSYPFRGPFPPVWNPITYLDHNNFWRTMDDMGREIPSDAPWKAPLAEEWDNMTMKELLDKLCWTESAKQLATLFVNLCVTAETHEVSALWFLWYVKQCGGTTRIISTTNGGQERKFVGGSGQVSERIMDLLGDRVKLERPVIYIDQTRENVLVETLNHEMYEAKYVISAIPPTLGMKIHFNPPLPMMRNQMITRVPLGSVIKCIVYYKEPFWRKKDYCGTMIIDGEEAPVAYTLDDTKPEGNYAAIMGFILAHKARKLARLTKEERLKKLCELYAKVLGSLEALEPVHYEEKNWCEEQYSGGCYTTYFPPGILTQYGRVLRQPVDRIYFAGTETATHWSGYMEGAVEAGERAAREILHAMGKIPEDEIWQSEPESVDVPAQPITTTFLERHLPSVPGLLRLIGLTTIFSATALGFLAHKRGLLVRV
Kind of data set: biochemical. Format: cell-based, BTI-TN-5B1-4.
Description: Inhibition of human recombinant MAO-B expressed in baculovirus infected BTI-TN-5B1-4 insect cells assessed as decrease in H2O2 production using p-tyramine as substrate incubated for 20 mins by horse-radish peroxidase/amplex red-based fluorescence method

The target of data set [4] is T2, Amine oxidase [flavin-containing] B. Kind of data set: Competitive inhibition of human recombinant MAO-B expressed in baculovirus infected BTI-TN-5B1-4 insect cells using p-tyramine as substrate by Dixon- plot analysis.
For data set [5] the target is unchanged. Kind of data set: Competitive inhibition of human recombinant MAO-B expressed in baculovirus infected BTI-TN-5B1-4 insect cells using p-tyramine as substrate by Lineweaver-Burk plot analysis.
The nature of data set [6]: Stability of the compound in ACN at 50 uM measured under daylight exposure for 76 days by UV-visible spectra analysis. Format: physicochemical. Conditions: 1824 h; call rule not given here.
Data set [7] is described as follows: Stability of the compound in DMSO at 50 uM measured under daylight exposure for 76 days by UV-visible spectra analysis. The following applies: 1824 h. The data set is classed as physicochemical.
The nature of data set [8]: Cytotoxicity against human HepG2 cells assessed as cell viability at 50 uM measured after 72 hrs by MTT assay relative to control. The data set is classed as cell-based. Conditions: read-out: Activity. For orientation: Tetrazolium assays rely on reduction of a dye to a coloured formazan, in cell work by metabolically active cells.
The next data set relates to HepG2. Kind of data set: Cytotoxicity against human HepG2 cells assessed as mitochondrial dysfunction at 25 to 50 uM. Conditions: hepg2, 50 µM. Format: cell-based.
In data set [9] the target is T2, Amine oxidase [flavin-containing] B. Briefly: Potency index, ratio of selegiline IC50 to compound IC50 for human recombinant MAO-B expressed in baculovirus infected BTI-TN-5B1-4 insect cells using p-tyramine as substrate.
Data set [10] is described as follows: Stability of the compound in MeOH assessed as compound purity level at 50 uM measured under daylight exposure for 76 days by LC/ESI-MS analysis. The data set is classed as physicochemical. The following applies: methanol; read-out: Stability.
Data set [11] in a line: Stability of the compound in dry MeOH assessed as compound crystallization at 10 mM measured under daylight for 43 hrs by LC/ESI-MS analysis. The data set is classed as physicochemical. The following applies: 10000 µM.
A short description of data set [12]: Stability of the compound in MeOH at 50 uM measured under daylight exposure for 3 days by UV-visible spectra analysis. Format: physicochemical. Conditions: 72 h.
Data set [13] in a line: Stability of the compound in dry MeOH at 1 to 10 mM measured under daylight exposure for 24 to 96 hrs by LC/ESI-MS analysis. Format: physicochemical. The following applies: 10000 µM.
Data set [14] is described as follows: Stability of the compound in dry MeOH assessed as dimers at 1 mM measured under daylight exposure for >96 hrs by LC/ESI-MS analysis. The data set is classed as physicochemical. The following applies: 1000 µM.
Data set [15] is described as follows: Stability of the compound in dry MeOH at 1 mM measured under daylight for 62 days by LC/ESI-MS analysis. Format: physicochemical. Conditions: 1488 h, 1000 µM.
For a further data set, the target named is Acetylcholinesterase (Homo sapiens, UniProt P22303). Briefly: Inhibition of AChE in human erythrocytes using acetylthiocholine iodide as substrate preincubated with enzyme for 10 mins followed by substrate addition measured for 15 mins by Ellman's method. Format: cell-based.
Acetylcholinesterase, sequence (P22303 whole entry): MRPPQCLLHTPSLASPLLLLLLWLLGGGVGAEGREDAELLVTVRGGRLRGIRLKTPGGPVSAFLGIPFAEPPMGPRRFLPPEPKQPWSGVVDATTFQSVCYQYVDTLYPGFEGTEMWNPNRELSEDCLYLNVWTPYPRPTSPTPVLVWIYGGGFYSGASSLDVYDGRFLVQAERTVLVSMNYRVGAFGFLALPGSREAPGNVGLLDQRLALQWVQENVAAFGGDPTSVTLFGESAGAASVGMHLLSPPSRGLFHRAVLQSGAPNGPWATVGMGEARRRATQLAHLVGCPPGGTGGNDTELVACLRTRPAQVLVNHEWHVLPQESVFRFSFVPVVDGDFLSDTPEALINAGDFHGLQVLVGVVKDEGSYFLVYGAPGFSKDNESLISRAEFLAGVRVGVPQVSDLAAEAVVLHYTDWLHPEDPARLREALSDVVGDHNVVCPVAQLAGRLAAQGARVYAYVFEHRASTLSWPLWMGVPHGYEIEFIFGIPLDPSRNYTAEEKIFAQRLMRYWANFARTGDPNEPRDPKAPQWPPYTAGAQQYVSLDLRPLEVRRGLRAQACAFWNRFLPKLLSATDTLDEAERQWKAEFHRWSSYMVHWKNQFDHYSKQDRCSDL

As a reminder, the Ki is the equilibrium dissociation constant of an inhibitor or competing ligand from its target. As usually defined, the inhibition is the relative decrease from the control value, in per cent. A high value points to strong suppression. Regarding `COCCn1ncc2cc(C(=O)Nc3ccc(Cl)c(Cl)c3)ccc21`, in data set [1], the Ki turned out to be 0.48 nM. The Ratio IC50 in the data set filed under Homo sapiens is above 2660. The molecule further had an inhibition in [2] of 9.58%.
With `O=C(Nc1ccc(Cl)c(F)c1)c1ccc2[nH]ncc2c1`, the affinity in data set [3], expressed as Ki, was 0.29 nM. In addition, in the data set filed under Homo sapiens, the Ratio IC50 was found to be 15000. In addition, the inhibition in data set [2] came to 2.23%.
A word on the IC50: it is the point on the concentration scale where inhibition reaches its midpoint. Lower therefore signals higher potency. Regarding `Cn1ncc2cc(/C=N/c3ccc(Cl)c(Cl)c3)ccc21`, the inhibitory constant (Ki) is 0.46 nM in data set [3] and 0.63 nM in data set [4]. This molecule returned an IC50 in [1] above 10000 nM. For the same molecule, in the data set filed under Homo sapiens, the Ratio IC50 is 9710. Besides, in data set [2], the inhibition is 8.57%. Moreover, the “inhibition (INH)” value in data set [5] is reported as “Active”.
In turn, `Fc1cc(/N=C/c2ccc3[nH]ncc3c2)ccc1Cl` returned a Ki in data set [3] of 0.84 nM. In the data set filed under Homo sapiens, the Ratio IC50 was found to be 5240. The molecule also yielded an inhibition in data set [2] of 6.97%.
In data set [3], `Fc1ccc(/N=C/c2ccc3[nH]ncc3c2)cc1Cl` returned a Ki of 0.93 nM. This molecule also had an IC50 in data set [1] above 10000 nM. For the same molecule, the Ratio IC50 in the data set listed under Homo sapiens amounted to 4760. The inhibition in data set [2] amounted to 4.56%.
In data set [3], `COCCn1ncc2cc(/C=N/c3ccc(Cl)c(Cl)c3)ccc21` returned an IC50 of 1.29 nM and a Ki of 0.57 nM. The same molecule returned an IC50 in data set [1] above 10000 nM. The Ratio IC50 in the data set listed under Homo sapiens was determined as 3160. Besides, the inhibition in data set [2] stood at 2.27%.
As for `O=C(Nc1ccc(F)c(Cl)c1)c1ccc2[nH]ncc2c1`, the inhibition in data set [2] stood at 7.21%.
Turning to `Clc1ccc(/N=C/c2ccc3[nH]ncc3c2)cc1Cl`, the Stability entry in data set [6] and in [7] was “Stable” each time. Besides, the IC50 in data set [1] is above 10000 nM. Further, in [8], the viability at 72 h, 50 µM came to 80.6%. Moreover, the Activity result in the data set on HepG2 is “Non-Toxic”. The inhibition in [2] was 9.01%.
Consider `O=C(Nc1cnc(Cl)c(Cl)c1)c1ccc2[nH]ncc2c1`, for which affinity in data set [3] was put at a Ki of 2.39 nM. For the same molecule, in data set [1], the IC50 is above 10000 nM. Moreover, in the data set filed under Homo sapiens, the Ratio IC50 is above 1840. The molecule also registered an inhibition in data set [2] of 9.23%.
On to `O=C(Nc1ccc(Cl)c(Cl)c1)c1ccc2[nH]ncc2c1`, for which, in data set [8], the viability at 72 h, 50 µM was determined as 66.3%. Further, the Activity entry in the data set with HepG2 is recorded as “Non-Toxic”. For the same molecule, the results for the “Ratio IC50” value (in data set [9]; in the data set listed under Homo sapiens) were 9 and 17100, respectively. Also, in [2], the inhibition worked out at 11.3%.
For the molecule `Clc1cc(/N=C/c2ccc3[nH]ncc3c2)cnc1Cl`, the IC50 in data set [3] is 1.28 nM; in [1] it was above 10000 nM. Besides, the Ki in data set [3] was found to be 0.57 nM. Also, in data set [10], the remaining at 1824 h, 50 µM was 68.1%. The Stability entry is “Stable” in data set [6]; “Unstable” in data set [11]; “Stable” in data set [7]; “Stable” in data set [12]; “Stable” in data set [13]; “Unstable” in [14]. Further, in data set [15], the Stability result was “Unstable”. Moreover, the “Ratio IC50” value is 4.3 in [9] and above 7810 in the data set filed under Homo sapiens. In addition, in data set [2], the inhibition stood at 9.64%.
In the case of `Cn1ncc2cc(C(=O)Nc3ccc(Cl)c(Cl)c3)ccc21`, the IC50 against Acetylcholinesterase came to 78300 nM. The inhibition in [2] came out at 11.1%.
